Experimental data reported in ChEMBL document CHEMBL5465560, “Selectivity Literature for EUbOPEN Chemogenomic Library” (2024).

Tests used:
[1] = molecular target: Fibroblast growth factor receptor 3 (Homo sapiens, UniProt P22607); test: Selectivity interaction (Upstate Kinase Profiler service (Millipore)) EUB0000056c FGFR3; conditions: at 1 µM
[2] = molecular target: Ribosomal protein S6 kinase alpha-1 (Homo sapiens, UniProt Q15418); test: Selectivity interaction (KinomeScan (DiscoverX)) EUB0001079a RPS6KA1; conditions: at 1 µM
Ribosomal protein S6 kinase alpha-1, sequence (Q15418 whole entry): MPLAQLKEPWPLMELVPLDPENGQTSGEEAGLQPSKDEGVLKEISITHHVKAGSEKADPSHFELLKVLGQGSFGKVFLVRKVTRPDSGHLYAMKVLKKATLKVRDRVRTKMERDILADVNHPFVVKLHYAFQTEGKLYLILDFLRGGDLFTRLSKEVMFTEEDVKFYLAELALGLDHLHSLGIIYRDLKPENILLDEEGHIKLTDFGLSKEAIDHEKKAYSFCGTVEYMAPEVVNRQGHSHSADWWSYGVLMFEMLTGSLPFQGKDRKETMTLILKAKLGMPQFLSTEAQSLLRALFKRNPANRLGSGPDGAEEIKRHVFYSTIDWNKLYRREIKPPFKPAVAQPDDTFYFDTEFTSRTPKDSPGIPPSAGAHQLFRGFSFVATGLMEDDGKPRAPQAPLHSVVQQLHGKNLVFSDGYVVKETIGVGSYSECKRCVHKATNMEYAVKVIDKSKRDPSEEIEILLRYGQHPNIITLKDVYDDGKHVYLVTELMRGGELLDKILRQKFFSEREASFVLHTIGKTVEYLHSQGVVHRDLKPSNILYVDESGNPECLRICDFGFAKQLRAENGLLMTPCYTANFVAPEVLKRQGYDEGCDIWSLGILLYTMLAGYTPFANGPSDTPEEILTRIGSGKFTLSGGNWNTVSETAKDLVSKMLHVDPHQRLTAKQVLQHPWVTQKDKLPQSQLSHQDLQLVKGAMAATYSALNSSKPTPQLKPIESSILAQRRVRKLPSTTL

[3] = molecular target: Mitogen-activated protein kinase kinase kinase 4 (Homo sapiens) (UniProt Q9Y6R4); test: Selectivity interaction (Kinase panel (KiNativ target engagement assay in Jurkat cells)) EUB0001635a MAP3K4; type: cell-based; conditions: Selectivity number of off-targets 0.0, Selectivity number of targets 233.0, Source Knowledge https://www.sciencedirect.com/science/article/pii/S2451945619300674?via%3Dihub, at 1 µM
Mitogen-activated protein kinase kinase kinase 4 (Homo sapiens), sequence (Q9Y6R4 whole entry, canonical isoform): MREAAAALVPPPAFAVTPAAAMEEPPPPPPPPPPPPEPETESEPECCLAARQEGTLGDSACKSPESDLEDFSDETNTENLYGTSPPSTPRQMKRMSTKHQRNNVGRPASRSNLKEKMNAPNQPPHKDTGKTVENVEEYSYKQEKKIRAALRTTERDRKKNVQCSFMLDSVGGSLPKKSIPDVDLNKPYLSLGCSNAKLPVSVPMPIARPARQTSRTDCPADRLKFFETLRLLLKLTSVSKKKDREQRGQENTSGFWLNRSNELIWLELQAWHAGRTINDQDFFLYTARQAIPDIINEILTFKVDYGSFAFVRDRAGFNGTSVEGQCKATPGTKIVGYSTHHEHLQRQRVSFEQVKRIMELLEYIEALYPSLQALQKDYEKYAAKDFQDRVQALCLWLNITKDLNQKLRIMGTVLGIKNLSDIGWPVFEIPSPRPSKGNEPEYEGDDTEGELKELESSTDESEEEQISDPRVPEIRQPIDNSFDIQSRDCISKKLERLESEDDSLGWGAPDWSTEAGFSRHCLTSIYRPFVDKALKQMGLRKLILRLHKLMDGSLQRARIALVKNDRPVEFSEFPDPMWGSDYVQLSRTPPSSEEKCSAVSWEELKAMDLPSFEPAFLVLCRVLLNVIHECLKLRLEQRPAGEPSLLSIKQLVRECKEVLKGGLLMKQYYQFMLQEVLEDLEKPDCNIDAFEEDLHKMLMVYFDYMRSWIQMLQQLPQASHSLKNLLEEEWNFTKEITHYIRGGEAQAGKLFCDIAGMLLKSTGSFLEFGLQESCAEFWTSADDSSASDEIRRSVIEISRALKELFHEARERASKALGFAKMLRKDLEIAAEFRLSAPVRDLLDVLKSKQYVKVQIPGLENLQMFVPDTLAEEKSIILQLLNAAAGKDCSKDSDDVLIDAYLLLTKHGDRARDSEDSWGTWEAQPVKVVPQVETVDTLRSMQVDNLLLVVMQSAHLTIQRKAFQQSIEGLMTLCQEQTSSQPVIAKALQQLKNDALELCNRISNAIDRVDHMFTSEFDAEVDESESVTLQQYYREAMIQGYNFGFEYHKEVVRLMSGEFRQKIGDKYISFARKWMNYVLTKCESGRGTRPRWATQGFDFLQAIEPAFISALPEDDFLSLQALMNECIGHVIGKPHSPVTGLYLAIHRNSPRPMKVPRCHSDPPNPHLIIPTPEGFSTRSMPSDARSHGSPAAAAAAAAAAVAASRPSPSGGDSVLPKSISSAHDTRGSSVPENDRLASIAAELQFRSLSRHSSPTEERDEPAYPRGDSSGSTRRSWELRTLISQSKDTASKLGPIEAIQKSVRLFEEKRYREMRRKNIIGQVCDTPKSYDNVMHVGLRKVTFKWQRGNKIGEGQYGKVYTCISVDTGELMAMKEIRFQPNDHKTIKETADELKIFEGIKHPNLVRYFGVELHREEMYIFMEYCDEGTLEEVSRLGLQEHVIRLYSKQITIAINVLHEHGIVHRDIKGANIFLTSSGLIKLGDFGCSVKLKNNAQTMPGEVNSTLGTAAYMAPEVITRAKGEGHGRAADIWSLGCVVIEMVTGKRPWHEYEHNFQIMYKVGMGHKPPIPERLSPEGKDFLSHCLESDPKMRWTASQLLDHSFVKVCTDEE

[4] = molecular target: Phosphorylase b kinase gamma catalytic chain, skeletal muscle/heart isoform (Homo sapiens) (UniProt Q16816); test: Selectivity interaction (Kinase panel (Invitrogen)) EUB0000639a PHKG1; conditions: at 200 nM
[5] = molecular target: T1, Serine/threonine-protein kinase ULK3 (Homo sapiens) (UniProt Q6PHR2); test: Selectivity interaction (ActivX KiNativ screen (kinase selectivity in THP-1 cell lysates)) EUB0000639a ULK3; type: subcellular; conditions: lysate, at 0.2 µM
T1 sequence (whole entry): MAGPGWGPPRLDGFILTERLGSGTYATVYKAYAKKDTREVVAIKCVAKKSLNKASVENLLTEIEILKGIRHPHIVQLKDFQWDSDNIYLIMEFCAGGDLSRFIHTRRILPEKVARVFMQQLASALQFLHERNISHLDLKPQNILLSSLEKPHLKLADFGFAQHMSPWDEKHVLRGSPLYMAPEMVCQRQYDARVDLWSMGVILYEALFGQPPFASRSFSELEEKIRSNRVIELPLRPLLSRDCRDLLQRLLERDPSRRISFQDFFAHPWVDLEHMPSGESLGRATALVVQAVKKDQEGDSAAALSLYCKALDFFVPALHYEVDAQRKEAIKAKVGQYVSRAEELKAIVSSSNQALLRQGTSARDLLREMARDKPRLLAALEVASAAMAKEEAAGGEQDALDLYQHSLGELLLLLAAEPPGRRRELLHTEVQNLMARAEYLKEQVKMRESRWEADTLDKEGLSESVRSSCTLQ

[6] = molecular target: Aurora kinase B (Homo sapiens, UniProt Q96GD4); test: Selectivity interaction (SelectScreen profiling (Invitrogen)) EUB0000607a AURKB; conditions: at 2 µM
Aurora kinase B, sequence (Q96GD4 whole entry): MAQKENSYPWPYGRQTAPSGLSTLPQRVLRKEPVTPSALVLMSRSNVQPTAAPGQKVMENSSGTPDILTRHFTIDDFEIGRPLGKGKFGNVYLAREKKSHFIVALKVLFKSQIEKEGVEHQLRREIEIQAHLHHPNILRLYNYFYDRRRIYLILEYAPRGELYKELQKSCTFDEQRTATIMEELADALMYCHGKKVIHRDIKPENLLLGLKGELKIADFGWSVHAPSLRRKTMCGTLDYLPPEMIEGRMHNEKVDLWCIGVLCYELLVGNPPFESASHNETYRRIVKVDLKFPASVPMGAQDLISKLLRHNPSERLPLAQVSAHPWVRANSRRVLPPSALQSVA

[7] = molecular target: Mitogen-activated protein kinase 10 (Homo sapiens, UniProt P53779); test: Selectivity interaction (KinomeScan (DiscoverX)) EUB0000595a MAPK10; conditions: at 10 µM
[8] = molecular target: T2, Serine/threonine-protein kinase D1 (Homo sapiens) (UniProt Q15139); test: Selectivity interaction (KinomeScan (DiscoverX)) EUB0000618a PRKD1; conditions: at 10 µM
T2 sequence (whole entry): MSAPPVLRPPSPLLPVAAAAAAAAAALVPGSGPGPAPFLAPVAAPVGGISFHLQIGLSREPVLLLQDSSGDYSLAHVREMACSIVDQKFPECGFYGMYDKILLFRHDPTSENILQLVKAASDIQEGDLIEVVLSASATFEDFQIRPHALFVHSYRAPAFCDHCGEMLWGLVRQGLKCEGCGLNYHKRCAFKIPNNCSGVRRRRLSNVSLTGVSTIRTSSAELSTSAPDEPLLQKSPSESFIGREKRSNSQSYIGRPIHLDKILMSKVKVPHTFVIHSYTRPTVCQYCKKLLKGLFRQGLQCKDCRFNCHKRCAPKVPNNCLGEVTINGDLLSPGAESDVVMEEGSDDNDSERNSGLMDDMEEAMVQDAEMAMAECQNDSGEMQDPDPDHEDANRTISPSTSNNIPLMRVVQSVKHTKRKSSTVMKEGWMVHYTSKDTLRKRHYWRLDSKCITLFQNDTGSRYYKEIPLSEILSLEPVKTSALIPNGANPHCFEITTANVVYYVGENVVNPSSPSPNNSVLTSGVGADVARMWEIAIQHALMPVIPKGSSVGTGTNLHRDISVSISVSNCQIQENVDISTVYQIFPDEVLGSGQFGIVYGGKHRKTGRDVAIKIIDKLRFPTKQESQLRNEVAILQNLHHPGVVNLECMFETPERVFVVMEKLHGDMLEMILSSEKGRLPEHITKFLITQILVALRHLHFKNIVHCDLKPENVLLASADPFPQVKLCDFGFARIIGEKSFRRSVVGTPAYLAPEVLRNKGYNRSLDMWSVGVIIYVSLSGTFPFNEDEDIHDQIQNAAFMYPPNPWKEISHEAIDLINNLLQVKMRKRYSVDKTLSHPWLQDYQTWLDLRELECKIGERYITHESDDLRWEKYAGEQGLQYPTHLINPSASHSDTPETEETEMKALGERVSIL

[9] = molecular target: Non-receptor tyrosine-protein kinase TYK2 (Homo sapiens, UniProt P29597); test: Selectivity interaction (Ambit KINOMEscan and KiNATiv profiling in Jurkat cells) EUB0000090b TYK2; type: cell-based; conditions: at 1 µM
Non-receptor tyrosine-protein kinase TYK2, sequence (P29597 whole entry): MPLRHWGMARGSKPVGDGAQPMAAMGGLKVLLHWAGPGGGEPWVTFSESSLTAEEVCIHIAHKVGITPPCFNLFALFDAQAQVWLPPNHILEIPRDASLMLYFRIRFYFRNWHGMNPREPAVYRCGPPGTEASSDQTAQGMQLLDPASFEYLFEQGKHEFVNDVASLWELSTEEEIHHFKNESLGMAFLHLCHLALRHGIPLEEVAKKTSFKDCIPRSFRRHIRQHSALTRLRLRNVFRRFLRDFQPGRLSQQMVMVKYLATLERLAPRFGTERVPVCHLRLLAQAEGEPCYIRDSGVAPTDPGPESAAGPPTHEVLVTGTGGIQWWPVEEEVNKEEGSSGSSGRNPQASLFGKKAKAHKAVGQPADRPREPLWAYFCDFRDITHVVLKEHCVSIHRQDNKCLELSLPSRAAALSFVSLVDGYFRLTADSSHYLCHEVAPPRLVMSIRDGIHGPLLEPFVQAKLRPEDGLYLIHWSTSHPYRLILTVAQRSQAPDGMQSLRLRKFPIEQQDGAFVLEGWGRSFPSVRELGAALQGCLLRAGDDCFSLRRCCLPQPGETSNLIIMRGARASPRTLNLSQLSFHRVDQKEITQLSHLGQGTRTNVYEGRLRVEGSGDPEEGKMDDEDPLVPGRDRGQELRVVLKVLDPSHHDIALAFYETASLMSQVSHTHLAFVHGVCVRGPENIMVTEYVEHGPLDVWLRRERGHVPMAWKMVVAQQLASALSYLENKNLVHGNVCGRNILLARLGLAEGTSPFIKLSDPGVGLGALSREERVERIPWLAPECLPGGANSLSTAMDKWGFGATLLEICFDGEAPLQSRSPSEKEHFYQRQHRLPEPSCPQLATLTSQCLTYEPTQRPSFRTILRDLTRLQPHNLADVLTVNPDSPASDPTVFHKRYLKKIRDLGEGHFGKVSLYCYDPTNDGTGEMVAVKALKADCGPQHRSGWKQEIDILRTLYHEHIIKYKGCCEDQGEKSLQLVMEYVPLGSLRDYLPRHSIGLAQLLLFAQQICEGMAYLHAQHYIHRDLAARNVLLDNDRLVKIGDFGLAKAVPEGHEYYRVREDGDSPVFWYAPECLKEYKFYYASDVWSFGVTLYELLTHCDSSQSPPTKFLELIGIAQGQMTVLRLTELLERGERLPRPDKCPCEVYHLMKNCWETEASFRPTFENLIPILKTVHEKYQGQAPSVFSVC

[10] = molecular target: Serine/threonine-protein kinase 25 (Homo sapiens) (UniProt O00506); test: Selectivity interaction (ActivX KiNativ screen (ex vivo kinase selectivity in human PBMCs)) EUB0001619a STK25; type: cell-based; conditions: PBMC, at 1 µM
Serine/threonine-protein kinase 25 (Homo sapiens), sequence (O00506 whole entry, looked up): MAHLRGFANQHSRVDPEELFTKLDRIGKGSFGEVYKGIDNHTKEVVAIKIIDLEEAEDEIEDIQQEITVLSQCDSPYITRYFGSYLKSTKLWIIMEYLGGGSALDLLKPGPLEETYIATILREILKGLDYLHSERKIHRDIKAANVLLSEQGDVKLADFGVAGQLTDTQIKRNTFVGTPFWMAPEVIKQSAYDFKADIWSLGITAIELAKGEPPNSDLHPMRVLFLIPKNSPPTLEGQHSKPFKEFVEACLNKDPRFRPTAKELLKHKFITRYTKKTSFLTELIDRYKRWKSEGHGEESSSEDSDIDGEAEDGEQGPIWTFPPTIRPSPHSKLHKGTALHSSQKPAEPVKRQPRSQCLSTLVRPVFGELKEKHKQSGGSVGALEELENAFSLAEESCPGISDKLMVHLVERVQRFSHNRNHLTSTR

Fibroblast growth factor receptor 3, sequence (P22607 23-806 limits assumed): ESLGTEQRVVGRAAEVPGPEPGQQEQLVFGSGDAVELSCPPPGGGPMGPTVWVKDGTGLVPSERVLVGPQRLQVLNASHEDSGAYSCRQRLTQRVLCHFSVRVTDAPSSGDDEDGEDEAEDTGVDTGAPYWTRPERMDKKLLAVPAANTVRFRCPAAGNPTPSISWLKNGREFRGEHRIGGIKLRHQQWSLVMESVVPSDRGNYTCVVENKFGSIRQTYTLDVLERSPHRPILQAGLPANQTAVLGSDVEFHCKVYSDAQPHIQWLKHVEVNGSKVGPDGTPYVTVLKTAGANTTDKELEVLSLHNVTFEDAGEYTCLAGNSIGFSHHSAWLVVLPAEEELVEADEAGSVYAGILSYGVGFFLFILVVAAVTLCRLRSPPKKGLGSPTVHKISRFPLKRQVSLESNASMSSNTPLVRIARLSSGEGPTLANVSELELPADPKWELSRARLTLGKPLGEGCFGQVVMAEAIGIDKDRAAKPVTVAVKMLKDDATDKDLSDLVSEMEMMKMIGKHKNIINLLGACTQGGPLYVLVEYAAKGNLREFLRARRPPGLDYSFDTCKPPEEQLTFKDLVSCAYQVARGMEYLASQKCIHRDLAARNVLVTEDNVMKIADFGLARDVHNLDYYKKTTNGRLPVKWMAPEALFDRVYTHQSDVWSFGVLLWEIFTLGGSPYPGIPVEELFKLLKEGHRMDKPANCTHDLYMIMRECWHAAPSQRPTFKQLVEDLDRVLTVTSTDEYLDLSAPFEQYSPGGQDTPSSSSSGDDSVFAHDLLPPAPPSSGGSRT

Question: For Cc1ccc(-c2ccc3c(ccc4sc5c(c43)NC[C@@H](C)NC5=O)n2)cn1, which % of inhibition [1] is on record?
Answer: 16%

Question: How did the % of control [2] turn out when Nc1cnc(N2CCc3cc(S(=O)(=O)Nc4c(F)cc(Cl)cc4F)cc(N4CCCC4=O)c32)nc1 [TP-020n] was run?
Answer: 100%

Question: C=CC(=O)Nc1ccc(C(=O)Nc2[nH]nc3c2CN(C(=O)N[C@H](CN(C)C)c2ccccc2)C3(C)C)cc1 was tested. Which % of engagement [3] did it give?
Answer: -2.6%

Question: How did the % of inhibition [4] turn out when CC[C@@H]1[C@H](F)C(=O)N[C@@H]1COc1nccc2cc(C(N)=O)c(OC)cc12 [ZIMLOVISERTIB] was run?
Answer: 16.7%

Question: What about the % of inhibition [5] of the same molecule?
Answer: -8.1%

Question: CNC(=O)Nc1ccc(-c2nc(N3CC4CCC(C3)O4)c3cnn(C4CCC5(CC4)OCCO5)c3n2)cc1 was tested. Which % of inhibition [6] did it give?
Answer: 3%

Question: For COCC(=O)NC/C=C/c1ccc2ncnc(Nc3ccc(Oc4ccc(C)nc4)c(C)c3)c2c1 [CP-724714], which % of control [7] is on record?
Answer: 68%

Question: For O[C@H]1CC[C@H](Nc2ncc3nc(Nc4c(F)cc(F)cc4F)n([C@H]4CCOC4)c3n2)CC1, which % of control [8] is on record?
Answer: 46%

Question: For CN(C)C/C=C/C(=O)Nc1ccc(C(=O)N2CCCC(Nc3ncc(Cl)c(-c4c[nH]c5ccccc45)n3)C2)cc1 (stereo not given), which % of control [9] is on record?
Answer: 99%

Question: How did the % of inhibition [10] turn out when N#Cc1cccc(-c2c[nH]c3ncnc(N4CCOCC4)c23)c1 was run?
Answer: 65%
